Experimental data taken from ChEMBL document CHEMBL4507296 (2021).

What was measured:
[1] = target: Ephrin type-A receptor 5 (Homo sapiens) (UniProt P54756); conditions: Compound concentration 1000.0 nM
[2] = tested on: Epidermal growth factor receptor (Homo sapiens), P00533 [UNDEFINED MUTATION]; conditions: Compound concentration 1000.0 nM
[3] = target: Serine/threonine-protein kinase NLK (Homo sapiens) (UniProt Q9UBE8); conditions: Compound concentration 1000.0 nM
[4] = target: Mitogen-activated protein kinase kinase kinase 5 (Homo sapiens) (UniProt Q99683); conditions: Compound concentration 1000.0 nM
[5] = target: Serine/threonine-protein kinase RIO1 (Homo sapiens) (UniProt Q9BRS2); conditions: Compound concentration 1000.0 nM
[6] = target: Tyrosine-protein kinase Fyn (Homo sapiens) (UniProt P06241); conditions: Compound concentration 1000.0 nM
[7] = target: Mitogen-activated protein kinase 8 (Homo sapiens) (UniProt P45983); conditions: Compound concentration 1000.0 nM
Mitogen-activated protein kinase 8 (Homo sapiens), sequence (P45983 whole entry): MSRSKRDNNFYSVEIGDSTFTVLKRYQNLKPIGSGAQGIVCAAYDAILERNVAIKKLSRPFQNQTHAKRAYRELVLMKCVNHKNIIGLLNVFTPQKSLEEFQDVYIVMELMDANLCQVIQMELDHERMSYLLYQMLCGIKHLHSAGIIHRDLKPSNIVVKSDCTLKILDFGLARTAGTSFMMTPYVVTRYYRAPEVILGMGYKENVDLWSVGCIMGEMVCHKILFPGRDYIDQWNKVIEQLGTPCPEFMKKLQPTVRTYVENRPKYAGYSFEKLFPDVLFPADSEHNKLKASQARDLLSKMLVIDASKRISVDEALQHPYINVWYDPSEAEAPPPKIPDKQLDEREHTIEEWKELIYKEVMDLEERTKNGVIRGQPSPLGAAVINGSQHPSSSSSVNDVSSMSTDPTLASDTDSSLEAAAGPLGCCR

[8] = target: Voltage-gated sodium channel (Na+ channel, site 2) (Rattus norvegicus, UniProt F1LQQ7+O08562+O88420+O88457+P04774+P04775+P08104+P15389+P15390+Q62968); assay: Na+ channel (site 2) (rat) CEREP ligand profiling; format: protein assay; conditions: compound concentration 10 uM
[9] = target: Muscle, skeletal receptor tyrosine-protein kinase (Homo sapiens) (UniProt O15146); conditions: Compound concentration 1000.0 nM
[10] = target: Serine/threonine-protein kinase 38 (Homo sapiens) (UniProt Q15208); conditions: Compound concentration 1000.0 nM
[11] = target: Eukaryotic translation initiation factor 2-alpha kinase 1 (Homo sapiens) (UniProt Q9BQI3); conditions: Compound concentration 1000.0 nM
[12] = target: Cyclin-dependent kinase 3 (Homo sapiens) (UniProt Q00526); conditions: Compound concentration 1000.0 nM
[13] = target: Serine/threonine-protein kinase 4 (Homo sapiens) (UniProt Q13043); conditions: Compound concentration 1000.0 nM
[14] = target: Macrophage colony-stimulating factor 1 receptor (Homo sapiens) (UniProt P07333); conditions: Compound concentration 1000.0 nM
Macrophage colony-stimulating factor 1 receptor (Homo sapiens), sequence (P07333 whole entry): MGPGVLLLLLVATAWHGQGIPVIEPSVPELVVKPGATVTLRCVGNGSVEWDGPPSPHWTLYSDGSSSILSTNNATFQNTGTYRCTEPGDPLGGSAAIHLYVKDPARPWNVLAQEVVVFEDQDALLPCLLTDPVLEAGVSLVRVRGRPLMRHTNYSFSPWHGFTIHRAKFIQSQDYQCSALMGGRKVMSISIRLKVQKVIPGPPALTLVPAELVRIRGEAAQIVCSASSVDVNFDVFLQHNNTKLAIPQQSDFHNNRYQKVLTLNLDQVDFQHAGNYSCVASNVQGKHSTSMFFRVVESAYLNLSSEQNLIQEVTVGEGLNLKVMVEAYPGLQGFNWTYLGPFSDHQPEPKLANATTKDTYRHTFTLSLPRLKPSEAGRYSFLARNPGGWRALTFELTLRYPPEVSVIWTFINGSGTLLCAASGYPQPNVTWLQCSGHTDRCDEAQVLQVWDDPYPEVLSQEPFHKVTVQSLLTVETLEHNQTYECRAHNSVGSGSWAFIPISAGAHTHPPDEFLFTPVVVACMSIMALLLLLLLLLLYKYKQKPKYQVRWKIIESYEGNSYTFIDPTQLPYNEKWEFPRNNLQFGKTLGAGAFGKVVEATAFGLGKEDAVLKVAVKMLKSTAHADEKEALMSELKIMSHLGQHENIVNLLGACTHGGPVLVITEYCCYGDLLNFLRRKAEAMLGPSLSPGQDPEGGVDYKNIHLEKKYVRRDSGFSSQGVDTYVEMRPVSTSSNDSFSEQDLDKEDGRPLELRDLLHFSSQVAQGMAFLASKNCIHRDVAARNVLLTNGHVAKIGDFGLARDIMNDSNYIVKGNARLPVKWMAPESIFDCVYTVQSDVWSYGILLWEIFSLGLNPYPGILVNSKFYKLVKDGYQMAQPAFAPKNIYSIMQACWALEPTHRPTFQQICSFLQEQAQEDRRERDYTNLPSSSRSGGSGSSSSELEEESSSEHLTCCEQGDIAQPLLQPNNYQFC

[15] = target: Receptor tyrosine-protein kinase erbB-3 (Homo sapiens) (UniProt P21860); conditions: Compound concentration 1000.0 nM
[16] = target: SRSF protein kinase 1 (Homo sapiens) (UniProt Q96SB4); conditions: Compound concentration 1000.0 nM
[17] = target: Ribosomal protein S6 kinase alpha-4 (Homo sapiens) (UniProt O75676); conditions: Compound concentration 1000.0 nM
[18] = tested on: Mast/stem cell growth factor receptor Kit (Homo sapiens), P10721 [V559D,T670I]; conditions: Compound concentration 1000.0 nM
Mast/stem cell growth factor receptor Kit (Homo sapiens), P10721 [V559D,T670I], sequence (P10721 whole entry V559D/T670I, canonical isoform): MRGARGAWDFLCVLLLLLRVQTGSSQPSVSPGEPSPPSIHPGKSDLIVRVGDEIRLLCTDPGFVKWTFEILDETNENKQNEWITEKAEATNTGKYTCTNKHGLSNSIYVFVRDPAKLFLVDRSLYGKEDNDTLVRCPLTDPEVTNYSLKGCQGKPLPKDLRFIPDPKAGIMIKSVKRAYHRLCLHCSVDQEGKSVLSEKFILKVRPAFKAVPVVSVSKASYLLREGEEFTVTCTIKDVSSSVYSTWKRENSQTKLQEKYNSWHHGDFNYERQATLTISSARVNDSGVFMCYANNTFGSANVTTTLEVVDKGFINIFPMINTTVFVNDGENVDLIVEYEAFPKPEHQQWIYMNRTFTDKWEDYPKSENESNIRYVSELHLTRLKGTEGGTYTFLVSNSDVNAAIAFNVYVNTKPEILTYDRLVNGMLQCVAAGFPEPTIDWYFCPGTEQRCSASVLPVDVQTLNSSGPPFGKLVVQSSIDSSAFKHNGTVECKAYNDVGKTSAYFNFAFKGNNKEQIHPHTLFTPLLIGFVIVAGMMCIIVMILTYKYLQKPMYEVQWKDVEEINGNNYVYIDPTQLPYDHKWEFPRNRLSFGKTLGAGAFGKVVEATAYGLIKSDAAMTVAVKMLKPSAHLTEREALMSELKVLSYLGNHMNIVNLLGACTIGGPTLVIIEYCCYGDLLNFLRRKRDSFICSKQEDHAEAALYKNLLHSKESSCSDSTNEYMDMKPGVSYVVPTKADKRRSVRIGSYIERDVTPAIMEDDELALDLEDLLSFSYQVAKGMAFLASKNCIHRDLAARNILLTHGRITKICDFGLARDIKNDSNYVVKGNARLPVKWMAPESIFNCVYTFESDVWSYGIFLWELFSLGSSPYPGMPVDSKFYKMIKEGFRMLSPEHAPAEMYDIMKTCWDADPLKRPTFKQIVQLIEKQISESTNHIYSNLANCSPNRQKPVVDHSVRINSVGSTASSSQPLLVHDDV

[19] = tested on: Phosphatidylinositol 4,5-bisphosphate 3-kinase catalytic subunit alpha isoform (Homo sapiens), P42336 [E545A]; conditions: Compound concentration 1000.0 nM
[20] = target: Platelet-derived growth factor receptor alpha (Homo sapiens) (UniProt P16234); conditions: Compound concentration 1000.0 nM
[21] = target: Serine/threonine-protein kinase pim-3 (Homo sapiens) (UniProt Q86V86); conditions: Compound concentration 1000.0 nM
[22] = target: Casein kinase I isoform gamma-3 (Homo sapiens) (UniProt Q9Y6M4); conditions: Compound concentration 1000.0 nM
[23] = target: Ribosomal protein S6 kinase beta-1 (Homo sapiens) (UniProt P23443); conditions: Compound concentration 1000.0 nM
[24] = target: Phosphatidylinositol 5-phosphate 4-kinase type-2 beta (Homo sapiens) (UniProt P78356); conditions: Compound concentration 1000.0 nM
[25] = target: Myosin light chain kinase (Homo sapiens) (UniProt Q32MK0); conditions: Compound concentration 1000.0 nM
[26] = target: Leucine-rich repeat serine/threonine-protein kinase 2 (Homo sapiens) (UniProt Q5S007); conditions: Compound concentration 1000.0 nM
[27] = target: Macrophage colony-stimulating factor 1 receptor (Homo sapiens) (UniProt P07333); conditions: Compound concentration 1000.0 nM; remark: listed apart in the source
[28] = target: Calcium-dependent protein kinase 1 (Plasmodium falciparum) (UniProt P62344); conditions: Compound concentration 1000.0 nM
[29] = tested on: Tyrosine-protein kinase ABL1 (Homo sapiens), P00519 [E255K]; conditions: Compound concentration 1000.0 nM
[30] = target: D(2) dopamine receptor (Homo sapiens) (UniProt P14416); conditions: Compound concentration 10.0 uM
[31] = target: Mitogen-activated protein kinase kinase kinase 6 (Homo sapiens) (UniProt O95382); conditions: Compound concentration 1000.0 nM
Mitogen-activated protein kinase kinase kinase 6 (Homo sapiens), sequence (O95382 whole entry): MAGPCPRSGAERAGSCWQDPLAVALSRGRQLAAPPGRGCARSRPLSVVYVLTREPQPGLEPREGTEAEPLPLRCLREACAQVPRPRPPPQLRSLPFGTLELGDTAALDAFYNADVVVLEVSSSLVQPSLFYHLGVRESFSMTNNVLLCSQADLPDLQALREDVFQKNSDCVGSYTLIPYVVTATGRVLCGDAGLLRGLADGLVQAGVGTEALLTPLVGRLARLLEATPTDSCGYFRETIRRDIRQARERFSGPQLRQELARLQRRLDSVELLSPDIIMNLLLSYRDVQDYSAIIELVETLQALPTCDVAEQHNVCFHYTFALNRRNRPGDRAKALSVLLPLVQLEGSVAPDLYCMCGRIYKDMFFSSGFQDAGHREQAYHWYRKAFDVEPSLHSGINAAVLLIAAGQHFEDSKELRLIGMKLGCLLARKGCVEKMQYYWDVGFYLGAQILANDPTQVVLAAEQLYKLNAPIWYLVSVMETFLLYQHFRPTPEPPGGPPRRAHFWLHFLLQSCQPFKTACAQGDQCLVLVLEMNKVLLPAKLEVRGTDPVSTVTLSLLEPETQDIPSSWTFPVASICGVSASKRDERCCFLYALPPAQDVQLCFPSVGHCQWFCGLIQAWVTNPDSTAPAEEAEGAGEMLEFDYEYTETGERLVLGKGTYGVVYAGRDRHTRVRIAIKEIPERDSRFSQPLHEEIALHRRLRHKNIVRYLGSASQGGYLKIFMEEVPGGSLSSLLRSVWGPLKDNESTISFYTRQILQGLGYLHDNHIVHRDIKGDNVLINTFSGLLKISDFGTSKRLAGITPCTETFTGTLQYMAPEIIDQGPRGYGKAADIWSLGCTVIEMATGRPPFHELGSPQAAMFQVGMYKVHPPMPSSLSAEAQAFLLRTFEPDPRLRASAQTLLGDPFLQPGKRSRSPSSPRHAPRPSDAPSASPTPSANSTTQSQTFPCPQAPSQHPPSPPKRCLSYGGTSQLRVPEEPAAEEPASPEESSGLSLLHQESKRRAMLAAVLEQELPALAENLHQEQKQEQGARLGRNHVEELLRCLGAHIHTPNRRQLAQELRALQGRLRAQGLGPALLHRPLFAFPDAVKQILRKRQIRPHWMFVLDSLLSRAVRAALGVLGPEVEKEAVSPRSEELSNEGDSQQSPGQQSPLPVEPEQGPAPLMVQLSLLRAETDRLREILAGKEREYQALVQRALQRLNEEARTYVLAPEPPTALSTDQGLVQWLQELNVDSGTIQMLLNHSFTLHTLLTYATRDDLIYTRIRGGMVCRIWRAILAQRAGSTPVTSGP

[32] = target: AP2-associated protein kinase 1 (Homo sapiens) (UniProt Q2M2I8); conditions: Compound concentration 1000.0 nM
[33] = target: Serine/threonine-protein kinase WNK1 (Homo sapiens) (UniProt Q9H4A3); conditions: Compound concentration 1000.0 nM
[34] = target: Serine/threonine-protein kinase 36 (Homo sapiens) (UniProt Q9NRP7); conditions: Compound concentration 1000.0 nM
[35] = tested on: Mast/stem cell growth factor receptor Kit (Homo sapiens), P10721 [D816V]; conditions: Compound concentration 1000.0 nM
Mast/stem cell growth factor receptor Kit (Homo sapiens), P10721 [D816V], sequence (P10721 whole entry D816V, the tested form may be a part): as the sequence (P10721 whole entry V559D/T670I, canonical isoform) above, with D559V, I670T, D816V counted along it

[36] = target: Phosphatidylinositol 3-kinase C2 domain-containing subunit gamma (Homo sapiens) (UniProt O75747); conditions: Compound concentration 1000.0 nM

Ephrin type-A receptor 5 (Homo sapiens), sequence (P54756 whole entry): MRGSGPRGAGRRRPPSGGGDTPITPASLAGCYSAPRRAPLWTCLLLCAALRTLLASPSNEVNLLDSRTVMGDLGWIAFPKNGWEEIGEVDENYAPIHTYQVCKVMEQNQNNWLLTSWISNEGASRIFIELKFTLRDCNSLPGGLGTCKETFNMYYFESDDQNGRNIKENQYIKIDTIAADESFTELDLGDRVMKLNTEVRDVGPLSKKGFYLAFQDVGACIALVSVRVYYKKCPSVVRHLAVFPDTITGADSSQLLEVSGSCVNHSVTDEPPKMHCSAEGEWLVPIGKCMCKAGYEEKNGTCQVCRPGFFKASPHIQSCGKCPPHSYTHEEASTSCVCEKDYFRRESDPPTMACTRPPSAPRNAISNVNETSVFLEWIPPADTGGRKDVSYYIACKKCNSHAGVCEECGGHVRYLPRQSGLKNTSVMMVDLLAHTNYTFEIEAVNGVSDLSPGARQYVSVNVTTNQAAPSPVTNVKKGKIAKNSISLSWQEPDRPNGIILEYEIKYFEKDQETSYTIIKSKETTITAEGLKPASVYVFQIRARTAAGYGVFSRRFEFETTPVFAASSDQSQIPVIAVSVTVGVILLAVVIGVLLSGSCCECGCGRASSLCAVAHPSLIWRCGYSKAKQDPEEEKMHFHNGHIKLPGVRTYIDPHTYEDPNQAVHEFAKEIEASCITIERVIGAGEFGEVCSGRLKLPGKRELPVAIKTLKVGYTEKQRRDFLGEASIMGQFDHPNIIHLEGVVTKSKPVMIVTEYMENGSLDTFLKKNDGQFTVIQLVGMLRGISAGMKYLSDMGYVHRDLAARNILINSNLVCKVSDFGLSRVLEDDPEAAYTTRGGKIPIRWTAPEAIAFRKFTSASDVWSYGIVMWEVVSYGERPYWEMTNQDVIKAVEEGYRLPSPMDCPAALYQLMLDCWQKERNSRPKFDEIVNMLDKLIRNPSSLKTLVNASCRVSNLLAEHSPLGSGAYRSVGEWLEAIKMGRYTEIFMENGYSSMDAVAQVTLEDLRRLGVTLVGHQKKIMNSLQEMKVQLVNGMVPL

C[C@H](c1ccc(F)cc1)N(Cc1cccc(C(=O)O)c1)C(=O)c1cnc2ccccc2c1 [PF-05105679] showed a residual activity [1] of 98%, a residual activity [2] of 100% and a residual activity [3] of 86%. It also gave a residual activity [4] of 100%, a residual activity [5] of 100% and a residual activity [6] of 63%. For the same compound, the residual activity [7] was 100%, the inhibition at 10 µM [8] was 32% (not active) and the residual activity [9] was 76%. For the same compound, the residual activity [10] was 100%, the residual activity [11] was 84% and the residual activity [12] was 98%. For the same compound, the residual activity [13] was 92%, the residual activity [14] was 65% and the residual activity [15] was 68%. It also gave a residual activity [16] of 95%, a residual activity [17] of 100% and a residual activity [18] of 98%. For the same compound, the residual activity [19] was 100%, the residual activity [20] was 100% and the residual activity [21] was 100%. It also gave a residual activity [22] of 100%, a residual activity [23] of 100% and a residual activity [24] of 96%. For the same compound, the residual activity [25] was 100%, the residual activity [26] was 100% and the residual activity [27] was 100%. For the same compound, the residual activity [28] was 100%, the residual activity [29] was 100% and the inhibition [30] was 7.61%. For the same compound, the residual activity [31] was 84%, the residual activity [32] was 100% and the residual activity [33] was 100%. For the same compound, the residual activity [34] was 100%, the residual activity [35] was 100% and the residual activity [36] was 100%.
